From publication PMC5970165, “Development and validation of a LC-MS/MS assay for pharmacokinetic studies of complement C5a receptor antagonists PMX53 and PMX205 in mice” (Scientific Reports, 2018)
Several values for one entry are separate records, joined by “and”; a condition that tells them apart may be missing. Equal values may be shown once. Values belong to the compound of their own block, whether it stands above or below them. Bridge positions count the residues as written; N and C are the ends. Square brackets hold non-standard residues; d marks the D form. Peptide text beside a SMILES is read from it. * marks the point of attachment. Hydrocinnamoyl = O=C(CCc1ccccc1)*; dCha = N[C@H](CC1CCCCC1)C(=O)O; Orn = NCCC[C@H](N)C(=O)O

Tests used:
[1] = in vivo; settings: male, C57BL/6 J, mouse, iv, 1 mg/kg
Method: (§1) The validity of the developed bioanalytical LC-MS/MS method was assessed by quantitative determination of C5aR1 antagonist levels in mice plasma and tissue following i.v. drug administration. All experimental procedures and animal care were performed following approval from the University of Queensland Animal Care and Use Committee and conducted in accordance with the National Health and Medical Research Council of Australia policies and guidelines for the care and use of animals for scientific purposes. C57BL/6 J mice (males, 10–12 weeks old) were purchased from Animal Resources Centre, Western Australia. An i.v. dose of 1 mg/kg was selected based upon previous pharmacokinetic studies in rat and in vivo efficacy studies in mice[6],[28]. After overnight fasting, mice (n = 4 per time point) were anaesthetized with zolazapam (50 mg/kg) and xylazine (12 mg/kg) via i.p. injection. […] Blood samples were collected via cardiac puncture at 2.5 min, 5 min, 10 min, 15 min, 30 min, 45 min, 60 min and 90 minutes in tubes containing EDTA followed by plasma separation by centrifugation at 1500 × g at 4 °C. Plasma samples were stored at −80 °C for further processing and analysis. Mice were immediately perfused transcardially with sterile saline to remove circulating drug from the blood vasculature. Whole brain and spinal cord samples were obtained and homogenized in an equal weight-volume of milliQ water. […] Pharmacokinetics data analysis was performed using Pharsight WINNONLIN software (version 6.4) by a non-compartmental analysis method to obtain various pharmacokinetic parameters.

[2] = Intestinal environment stability (intestinal washing and intestinal homogenate); settings: 1 µg/ml, 37 °C, up to 60 min
Method: Likewise gastric environment stability, intestinal stability of analytes was performed using intestinal contents of wild-type mice with free access to food and water overnight. Mice were anaesthetized and euthanized by cervical dislocation. The small intestine was clamped and removed from the abdominal cavity. The intestine was repeatedly lavaged with sterile saline (5 ml in total) and intestinal washings were collected and combined. The intestine was also homogenized with an equal volume of milliQ water. Intestinal lavage and intestinal homogenates were centrifuged (400 × g, 30 min at 4 °C) and the supernatant was collected and stored on ice. A solution of C5aR1 antagonist (1 µg/ml) was incubated at 37 °C for up to 60 minutes in intestinal lavage and intestinal homogenate supernatants, and samples (n = 4) were collected at regular time intervals by the addition of ice-cold acetonitrile. Samples were processed as described earlier for quantitative determination of unchanged analytes along with internal standard.

[3] = Intravenous pharmacokinetics in mice (plasma, brain, spinal cord; LC-MS/MS, non-compartmental analysis); settings: for MRT inf: MRT 0-inf_obs
Method: as §1

[4] = Plasma stability, incubation at 37 °C; settings: mouse plasma, 1 µg/ml, up to 60 min
Method: (§2) Plasma and serum stability was determined by incubation experiments. For plasma stability, whole blood was collected via cardiac puncture from anaesthetized wild-type mice in tubes containing EDTA, and plasma was extracted by centrifuging blood for 15 min at 1500 × g at 4 °C. […] Samples (n = 4) were quenched at regular intervals of 5 min, 10 min, 15 min, 30 min and 60 min by stopping the reaction with the addition of ice cold acetonitrile, and processed as described earlier for quantitative determination of unchanged analytes. For serum stability, whole blood was collected via cardiac puncture from anaesthetized wild-type mice in tubes and kept on ice until completely clotted. Serum was collected by centrifuging clotted blood for 15 min at 1500 × g at 4 °C. […] Briefly, on the day of analysis, samples were deproteinized with 1:3 ice cold acetonitrile and spiked with 10 µl of 100 ng/ml internal standard. Samples were vortexed, centrifuged and supernatants were dried by vacuum concentration at room temperature. Dried samples were reconstituted in 50 µl of 75% methanol and analysed using LC-MS/MS. The stability the C5aR1 antagonists were expressed as a percentage of the concentration detected at different time points in comparison to the concentration detected immediately following addition of antagonists i.e. at t = 0 min.

[5] = Serum stability, incubation at 37 °C; settings: mouse serum, 1 µg/ml, up to 60 min
Method: as §2

[6] = Gastric environment stability (gastric lavage fluid and gastric homogenate); settings: 1 µg/ml, 37 °C, up to 60 min
Method: The gastric stability of analytes was performed using gastric contents of wild-type mice with free access to food and water overnight (i.e. modelling physiological conditions). […] The stomach was clamped and removed from the abdominal cavity, and the stomach cavity was repeatedly lavaged with sterile saline (5 ml in total) and the lavage fluid collected and combined. The stomach tissue was then homogenized with an equal volume of milliQ water. Lavage fluid and stomach homogenate were centrifuged (400 × g, 30 min at 4 °C) and the supernatant was collected and stored on ice. A solution of C5aR1 antagonist (1 µg/ml) were incubated at 37 °C for up to 60 minutes in gastric lavage fluid and gastric homogenate supernatant, and samples (n = 4) were quenched at regular time intervals by the addition of ice-cold acetonitrile. Samples were processed as described earlier for the quantitative determination of unchanged analytes along with an internal standard.

[7] = brain, single i.v. 1 mg/kg, mice
[8] = male, C57BL/6 J, mouse, brain, iv, 1 mg/kg, single i.v. 1 mg/kg, mice
[9] = male, C57BL/6 J, mouse, plasma, iv, 1 mg/kg
[10] = male, C57BL/6 J, mouse, plasma, iv, 1 mg/kg, single i.v. 1 mg/kg, mice
[11] = male, C57BL/6 J, mouse, spinal cord, iv, 1 mg/kg, single i.v. 1 mg/kg, mice
[12] = spinal cord, single i.v. 1 mg/kg, mice

AUC(0-inf) [1]: 3830 ng·h/mL
AUC(0-t) [1]: 3410 ng·h/mL
clearance [1]: 0.18 mL/min
Cmax ([1]; Cmax): 11900 ng/mL
Vd ([1]; Vss_obs): 0.00328 L
Vd ([1]; Vz_obs): 0.00826 L
Compound: CC(=O)N[C@@H](Cc1ccccc1)C(=O)N[C@H]1CCCNC(=O)[C@H](CCCNC(=N)N)NC(=O)[C@H](Cc2c[nH]c3ccccc23)NC(=O)[C@@H](CC2CCCCC2)NC(=O)[C@@H]2CCCN2C1=O [PMX53, Ac-Phe-[Orn-Pro-dCha-Trp-Arg]]

stability in intestinal homogenates (unchanged form) ([2]; mouse intestinal homogenates): greater than 35%
stability in intestinal washing (unchanged form) ([2]; mouse intestinal washing): more than 85%
AUC 0-inf_obs [3, 7]: 12.18 µg·min/g
Cl_obs [3, 7]: 2.46 g/min
Vss_obs [3, 7]: 553.84 g
Vz_obs [3, 7]: 572.84 g
AUC(0-t) ([3]; brain, t = 90 min, single i.v. 1 mg/kg, mice): 4.18 µg·min/g
Cmax [3, 8]: 108 ng/g
MRT inf [3, 8]: 3.75 h
half-life ([3]; male, C57BL/6 J, mouse, brain, iv, 1 mg/kg, t1/2, brain, single i.v. 1 mg/kg, mice): 2.69 h
AUC(0-inf) [3, 9]: 5810 ng·h/mL
AUC(0-t) [3, 9]: 5800 ng·h/mL
clearance [3, 9]: 0.086 mL/min
Cmax [3, 10]: 29000 ng/mL
MRT inf [3, 10]: 0.15 h
Vd ([3]; male, C57BL/6 J, mouse, plasma, iv, 1 mg/kg, Vss_obs, plasma, single i.v. 1 mg/kg, mice): 0.00079 L
Vd ([3]; male, C57BL/6 J, mouse, plasma, iv, 1 mg/kg, Vz_obs, single i.v. 1 mg/kg, mice): 0.00132 L
half-life ([3]; male, C57BL/6 J, mouse, plasma, iv, 1 mg/kg, t1/2, plasma, single i.v. 1 mg/kg, mice): 0.17 h
Cmax [3, 11]: 213 ng/g
MRT inf [3, 11]: 2.49 h
half-life ([3]; male, C57BL/6 J, mouse, spinal cord, iv, 1 mg/kg, t1/2, spinal cord, single i.v. 1 mg/kg, mice): 1.78 h
AUC 0-inf_obs [3, 12]: 17.42 µg·min/g
Cl_obs [3, 12]: 1.722 g/min
Vss_obs [3, 12]: 257.98 g
Vz_obs [3, 12]: 265.65 g
AUC(0-t) ([3]; spinal cord, t = 90 min, single i.v. 1 mg/kg, mice): 7.95 µg·min/g
stability in plasma (percentage of concentration detected vs t = 0 min) [4]: 91.4 ± 3.1%
stability in serum (percentage of concentration detected vs t = 0 min) [5]: 91.4 ± 1.4%
stability in gastric homogenates (unchanged form, % of t = 0 min) ([6]; mouse gastric homogenates): 6.7 ± 4.2%
stability in gastric lavage (unchanged form, % of t = 0 min) ([6]; mouse gastric lavage fluid): < 25% and 23.3 ± 1.7%
Compound: N=C(N)NCCC[C@@H]1NC(=O)[C@H](Cc2c[nH]c3ccccc23)NC(=O)[C@@H](CC2CCCCC2)NC(=O)[C@@H]2CCCN2C(=O)[C@@H](NC(=O)CCc2ccccc2)CCCNC1=O [PMX205, hydrocinnamate-[Orn-Pro-dCha-Trp-Arg]] (Hydrocinnamoyl-[Orn]P[dCha]WR; lactam 1-C)
